This is an account of results in ChEMBL document CHEMBL4340503, “Antiviral activities of Janus-type nucleosides and their related oxime-intermediates” (Bioorg Med Chem, 2019).

Values after ≈ are worked out from the molar mass of the structure shown.

The nature of series [1]: Cytotoxicity against African green monkey Vero cells infected with Herpes simplex virus 1 after 72 hrs by MTT assay. The format is cell-based. As to conditions: chlorocebus sabaeus, read-out: TC50.
Another series has as its system Human alphaherpesvirus 1. Briefly: Antiviral activity against Herpes simplex virus 1 infected in African green monkey Vero cells assessed as inhibition of virus-induced cytopathogenic effect by microscopic analysis. As to conditions: Human alphaherpesvirus 1, Vero. The format is functional, organism-based.
In a further series the test system is Influenza A virus H3N2. Briefly: Antiviral activity against Influenza A virus H3N2 infected in African green monkey Vero cells assessed as inhibition of virus-induced cytopathogenic effect by microscopic analysis. It counts as functional, organism-based.
Series [2] is described as follows: Selectivity index, ratio of TC50 against African green monkey Vero cells infected with Herpes simplex virus 1 after 72 hrs by MTT assay to IC50 against Herpes simplex virus 1 infected in African green monkey Vero cells assessed as inhibition of virus-induced cytopathogenic effect by microscopic analysis. The format is toxicity. As to conditions: read-out: Selectivity Index.

Series [3] can be described thus: Selectivity index, ratio of TC50 against African green monkey Vero cells infected with Influenza A virus H3N2 after 72 hrs by MTT assay to IC50 against Influenza A virus H3N2 infected in African green monkey Vero cells assessed as inhibition of virus-induced cytopathogenic effect by microscopic analysis. The format is toxicity. As to conditions: read-out: Selectivity Index.

The nature of series [4]: Cytotoxicity against African green monkey Vero cells infected with Herpes simplex virus 2 after 72 hrs by MTT assay. It counts as cell-based. As to conditions: chlorocebus sabaeus, read-out: TC50.
A short description of series [5]: Cytotoxicity against African green monkey Vero cells infected with Coxsackievirus B3 after 72 hrs by MTT assay. It counts as cell-based. Particulars: chlorocebus sabaeus, read-out: TC50.
The nature of series [6]: Cytotoxicity against African green monkey Vero cells infected with Hepatitis C virus after 72 hrs by MTT assay. As to conditions: chlorocebus sabaeus, read-out: TC50. The format is cell-based.
A short description of series [7]: Cytotoxicity against African green monkey Vero cells infected with Influenza A virus H3N2 after 72 hrs by MTT assay. The format is cell-based. Particulars: chlorocebus sabaeus, read-out: TC50.
A short description of series [8]: Cytotoxicity against African green monkey Vero cells infected with Hepatitis B virus after 72 hrs by MTT assay. As to conditions: chlorocebus sabaeus, read-out: TC50. It counts as cell-based.
Series [9] is described as follows: Cytotoxicity against African green monkey Vero cells infected with Human papillomavirus after 72 hrs by MTT assay. It counts as cell-based. As to conditions: chlorocebus sabaeus, read-out: TC50.
In the next series the test system is Human alphaherpesvirus 2. Briefly: Antiviral activity against Herpes simplex virus 2 infected in African green monkey Vero cells assessed as inhibition of virus-induced cytopathogenic effect by microscopic analysis. Particulars: Human alphaherpesvirus 2, Vero. The format is functional, organism-based.
For another series, the system named is Coxsackievirus B3. Briefly: Antiviral activity against Coxsackievirus B3 infected in African green monkey Vero cells assessed as inhibition of virus-induced cytopathogenic effect by microscopic analysis. It counts as functional, organism-based. Particulars: Enterovirus B.
The test system of a further series is Hepatitis C virus. Briefly: Antiviral activity against Hepatitis C virus infected in African green monkey Vero cells assessed as inhibition of virus-induced cytopathogenic effect by microscopic analysis. The format is functional, organism-based, Hepacivirus hominis.
The subject of a further series is Human papillomavirus. Briefly: Antiviral activity against Human papillomavirus infected in African green monkey Vero cells assessed as inhibition of virus-induced cytopathogenic effect by microscopic analysis. The format is functional, organism-based.
Series [10] is described as follows: Selectivity index, ratio of TC50 against African green monkey Vero cells infected with Herpes simplex virus 2 after 72 hrs by MTT assay to IC50 against Herpes simplex virus 2 infected in African green monkey Vero cells assessed as inhibition of virus-induced cytopathogenic effect by microscopic analysis. The format is toxicity. Particulars: read-out: Selectivity Index.

Series [11] can be described thus: Selectivity index, ratio of TC50 against African green monkey Vero cells infected with Coxsackievirus B3 after 72 hrs by MTT assay to IC50 against Coxsackievirus B3 infected in African green monkey Vero cells assessed as inhibition of virus-induced cytopathogenic effect by microscopic analysis. The format is toxicity. Particulars: read-out: Selectivity Index.
A short description of series [12]: Selectivity index, ratio of TC50 against African green monkey Vero cells infected with Hepatitis C virus after 72 hrs by MTT assay to IC50 against Hepatitis C virus infected in African green monkey Vero cells assessed as inhibition of virus-induced cytopathogenic effect by microscopic analysis. The format is toxicity. As to conditions: read-out: Selectivity Index.

Series [13] is described as follows: Selectivity index, ratio of TC50 against African green monkey Vero cells infected with Hepatitis B virus after 72 hrs by MTT assay to IC50 against Hepatitis B virus infected in African green monkey Vero cells assessed as inhibition of virus-induced cytopathogenic effect by microscopic analysis. The format is toxicity. Particulars: read-out: Selectivity Index.

Series [14] in a line: Selectivity index, ratio of TC50 against African green monkey Vero cells infected with Human papillomavirus after 72 hrs by MTT assay to IC50 against Human papillomavirus infected in African green monkey Vero cells assessed as inhibition of virus-induced cytopathogenic effect by microscopic analysis. The format is toxicity. Particulars: read-out: Selectivity Index.

For `Nc1ncnc2c1c(=O)[nH]c(=O)n2[C@H]1O[C@@H](CO)[C@H](O)[C@@H]1O`, the CC50 at 72 h in [1] worked out at 40.5 µg/mL (≈ 130 µM). The IC50 in the series with Human alphaherpesvirus 1 was more than 30.2 µg/mL; with Influenza A virus H3N2 it was more than 33.3 µg/mL.
Take `COc1ccccc1CCCNc1ncnc(Cl)c1/C=N/O`: in series [1], the CC50 at 72 h is 1.29 µg/mL (≈ 4.02 µM). For the same compound, the IC50 with Human alphaherpesvirus 1 is more than 0.19 µg/mL.
Consider `CC(C)(C)c1ccc(CNc2ncnc(Cl)c2/C=N/O)cc1`, for which the CC50 at 72 h is 0.26 µg/mL (≈ 0.816 µM) in series [1]; 0.53 µg/mL (≈ 1.66 µM) in series [4]; 0.64 µg/mL (≈ 2.01 µM) in series [5]; 19.3 µg/mL (≈ 60.5 µM) in [6]; 0.48 µg/mL (≈ 1.51 µM) in series [7]; 0.0397 µg/mL (≈ 0.124 µM) in series [8]. For the same compound, the CC50 at 72 h in series [9] amounted to 9.8 µg/mL (≈ 30.7 µM). Moreover, the IC50 in the series with Human alphaherpesvirus 1 is 0.05 µg/mL (≈ 0.157 µM); with Influenza A virus H3N2, 0.27 µg/mL (≈ 0.847 µM); in the series on Human alphaherpesvirus 2, 0.04 µg/mL (≈ 0.125 µM); in the series on Coxsackievirus B3, 0.12 µg/mL (≈ 0.376 µM); in the series on Hepatitis C virus, 1.15 µg/mL (≈ 3.61 µM); in the series with Human papillomavirus, 5.6 µg/mL (≈ 17.6 µM). The selectivity ratio at 72 h in [2] is 5.2; in [3], 1.78; in [10], 13.2; in series [11], 4.92; in series [12] it was 17.8; in [13], 17.9. Besides, the selectivity ratio at 72 h in [14] worked out at 1.75.
As for `Nc1nc2c(c(N)nc(=O)n2[C@H]2C[C@H](O)[C@@H](CO)O2)c(=O)[nH]1`, the CC50 at 72 h in series [1] turned out to be 347 µg/mL (≈ 1120 µM). The IC50 in the series with Human alphaherpesvirus 1 was more than 167 µg/mL; in the series with Influenza A virus H3N2 it was more than 250 µg/mL.
As for `Nc1ncn([C@H]2C[C@H](O)[C@@H](CO)O2)c2nc(=O)[nH]c(=O)c1-2`, the CC50 at 72 h in series [1] was found to be 577 µg/mL (≈ 1960 µM). Also, the figures for the IC50 in the series on Human alphaherpesvirus 1 and in the series with Influenza A virus H3N2 were more than 333 µg/mL and more than 111 µg/mL, respectively.
On to `COc1ccccc1CNc1ncnc(Cl)c1/C=N/O`, for which the CC50 at 72 h amounted to 0.86 µg/mL (≈ 2.94 µM) in series [1]; 1.11 µg/mL (≈ 3.79 µM) in [4]; 0.86 µg/mL (≈ 2.94 µM) in series [5]; 32.4 µg/mL (≈ 111 µM) in series [6]; 1.19 µg/mL (≈ 4.07 µM) in series [7]; 0.063 µg/mL (≈ 0.215 µM) in series [8]. Besides, the CC50 at 72 h in series [9] worked out at 13.5 µg/mL (≈ 46.1 µM). In addition, the IC50 with Human alphaherpesvirus 1 amounted to 0.04 µg/mL (≈ 0.137 µM); in the series with Influenza A virus H3N2, 0.27 µg/mL (≈ 0.922 µM); in the series on Human alphaherpesvirus 2 it was 0.29 µg/mL (≈ 0.991 µM); in the series with Coxsackievirus B3, 0.05 µg/mL (≈ 0.171 µM); in the series on Hepatitis C virus, 1.19 µg/mL (≈ 4.07 µM); in the series with Human papillomavirus, 7.9 µg/mL (≈ 27 µM). Moreover, the selectivity ratio at 72 h in series [2] turned out to be 21.5; in series [3], 4.41; in [10], 3.83; in series [11] it was 17.2; in [12], 27.2; in series [13], 25.3. Besides, the selectivity ratio at 72 h in [14] was 1.71.
Turning to `CO/N=C\c1c(Cl)ncnc1NCc1ccccc1OC`, in series [1], the CC50 at 72 h was found to be 80.1 µg/mL (≈ 261 µM). In the series on Human alphaherpesvirus 1, the IC50 came out at 14.4 µg/mL (≈ 46.8 µM). Also, in series [2], the selectivity ratio at 72 h is 5.58.
Take `CO/N=C/c1c(Cl)ncnc1NCc1ccccc1OC`: the CC50 at 72 h in [1] turned out to be 38.5 µg/mL (≈ 126 µM). The IC50 in the series with Human alphaherpesvirus 1 worked out at 4.28 µg/mL (≈ 14 µM). Further, in [2], the selectivity ratio at 72 h was 9.
As for `Nc1ncnc2c1c(=O)[nH]c(=O)n2[C@@H]1O[C@H](CO)[C@@H](O)[C@@H]1O`, the CC50 at 72 h in [1] is more than 250 µg/mL. The figures for the IC50 with Human alphaherpesvirus 1 and in the series on Influenza A virus H3N2 were more than 83.3 µg/mL and more than 333 µg/mL, respectively.
As for `C[C@H]1O[C@@H](n2cnc(N)c3c(=O)[nH]c(=O)nc2-3)[C@H](O)[C@@H]1O`, in series [1], the CC50 at 72 h was found to be 500 µg/mL (≈ 1690 µM). The IC50 in the series on Human alphaherpesvirus 1 and with Influenza A virus H3N2 was 167 µg/mL (≈ 564 µM) in each case. Besides, the selectivity ratio at 72 h in series [2] and in series [3] was 3 each time.
Regarding `O/N=C/c1c(Cl)ncnc1NCc1ccc(F)cc1`, the CC50 at 72 h in [1] is 12.8 µg/mL (≈ 45.7 µM). Further, the IC50 in the series with Human alphaherpesvirus 1 is more than 2.47 µg/mL.
For the compound `Nc1ncn([C@@H]2O[C@H](CO)[C@@H](O)[C@@H]2O)c2nc(=O)[nH]c(=O)c1-2`, in series [1], the CC50 at 72 h stood at 1.78 µg/mL (≈ 5.72 µM). Further, the values for the IC50 in the series on Human alphaherpesvirus 1 and in the series on Influenza A virus H3N2 were more than 0.59 µg/mL and more than 0.46 µg/mL, respectively.
For `COc1ccc(Cn2c(=O)nc(N)c3c(=O)[nH]c(N)nc32)cc1`, the CC50 at 72 h in series [1] is 18.5 µg/mL (≈ 58.9 µM). Also, the IC50 in the series on Human alphaherpesvirus 1 was more than 6.17 µg/mL; with Influenza A virus H3N2, more than 55.6 µg/mL.
Regarding `COc1cccc(CNc2ncnc(Cl)c2/C=N/O)c1`, in [1], the CC50 at 72 h stood at 2.31 µg/mL (≈ 7.89 µM). Besides, the IC50 in the series with Human alphaherpesvirus 1 amounted to 0.48 µg/mL (≈ 1.64 µM). Moreover, the selectivity ratio at 72 h in series [2] is 4.81.
`Nc1ncn([C@@H]2O[C@H](CO)C[C@H]2O)c2nc(=O)[nH]c(=O)c1-2`: the CC50 at 72 h in [1] worked out at 347 µg/mL (≈ 1170 µM). The IC50 with Human alphaherpesvirus 1 is 75.9 µg/mL (≈ 257 µM); with Influenza A virus H3N2, more than 83.3 µg/mL. For the same compound, in series [2], the selectivity ratio at 72 h amounted to 4.6.
For the compound `COc1ccccc1CNc1ncnc(Cl)c1/C=N\O`, the CC50 at 72 h in series [1] turned out to be 10.7 µg/mL (≈ 36.5 µM). The IC50 in the series with Human alphaherpesvirus 1 turned out to be 4.79 µg/mL (≈ 16.4 µM). In [2], the selectivity ratio at 72 h turned out to be 2.23.
Turning to `NC(=O)c1ncn([C@@H]2O[C@H](CO)[C@@H](O)[C@H]2O)n1` [RIBAVIRIN], the CC50 at 72 h in series [1] was more than 200 µg/mL. The IC50 in the series with Human alphaherpesvirus 1 was 38.5 µg/mL (≈ 158 µM). Besides, the selectivity ratio at 72 h in series [2] was more than 5.2.
